Like-named read-outs stand apart in the source and are kept apart here.

In assay [1] the test system is human OPN promoter (pOPN1-luc) in A549/OPNluc cells. Briefly: Luciferase assay: luciferase expression under control of OPN promoter. It counts as cell-based. The text has this: (§1) A reporter vector pOPN1-luc obtained by the insertion of a human OPN promoter sequence (−765 to 23) into the multiple cloning site of pGL-3 basic vector (Promega) expresses luciferase when transfected into animal cells. The pOPN1-luc was transfected into a human non-small cell lung cancer-derived cell line A549 together with pPUR (Clontech) that expresses a puromycin resistance gene (puromycin-N-acetyl-transferase gene), and then cells expressing luciferase which could grow a puromycin-supplemented medium were selected. The selected cells were named “A549/OPNluc cells” and used for observation of luciferase expression inhibitory effect under control of OPN promoter, as described below.
(§2) A test compound was added to a culture containing A549/OPNluc cells to observe its influence on the amount of luciferase expressed in the cells. Here, it can be considered that when the test compound has a cell cytotoxity or cell growth inhibitory effect, the total expression level of luciferase is reduced due to a reduction in the number of living cells that depends on the concentration of the test compound, and therefore the luciferase expression inhibitory effect of the test compound under control of OPN promoter cannot be properly evaluated. For this reason, WST assay for quantification of cell proliferation ability or cell viability by colorimetric measurement was firstly performed to determine IC50 (concentration for 50% inhibition of cell growth) of the test compound for cell growth. Then, luciferase activity measurement was performed to determine EC50 (concentration for 50% inhibition of luciferase expression) of the test compound for luciferase expression under control of OPN promoter.
The same steps as in the above-mentioned WST assay were performed in which each solution of only DMSO (control) or the diluted test compound (sample) was added in an amount of 0.5 μL to each well containing the cell suspension to achieve 200-fold dilution, and the solution in each well was mixed with a vortex mixer, and the 96-well plate was incubated in a CO2 incubator (at 37° C. and 5% CO2) for 48±4 hours.
Luciferase Assay Substrate (hereinafter referred to as “LAS”) supplied in Luciferase Assay Systems (Promega: Cat #E1500) was dissolved in Luciferase Assay Buffer (LAB) to prepare a luciferase reagent. 5×Cell Culture Lysis Reagent (hereinafter referred to as “CCLR”) was diluted by 5 times with water to prepare 1×CCLR.
After the incubation for 48±4 hours, the medium in each well was completely removed, and 1×CCLR was dispensed into each well in an amount of 50 μL. The 96-well plate was allowed to stand at room temperature for 30 minutes, and then 1×CCLR in each well was used as an assay sample. The luciferase reagent (100 μL) was placed in a tube for chemiluminescence measurement, and the assay sample (20 μL) was added to the tube and mixed with the luciferase reagent to measure chemiluminescence (Relative Luminescence Intensity: RLU) using TB 20/20 (Promega) or GloMax 20/20 (Promega).
The RLU values of the control wells and the sample wells at each concentration were input into an Excel file, and the percentages of RLU values of the sample wells at each concentration to the average RLU value of the control wells were determined. From these values, a fitted curve was determined by the method of least squares to calculate EC50. Also, the percentages of RLU values of the sample wells at each concentration to the average RLU value of the control wells were divided by the percentages of absorbance values of the compounds in WST assay at the same concentrations as those of this assay (to the control), and a fitted curve was determined from the calculated values by the method of least squares to calculate corrected EC50.

Another assay relates to A549/OPNluc cells. Nature of the assay: WST assay for cell growth / cell viability. It counts as cell-based, human. Particulars: 48±4 hours, WST-1, read-out: IC50 (concentration for 50% inhibition of cell growth).
Source text: as §1, §2
A549/OPNluc cells were suspended in DMEM medium containing 10% fetal calf serum (FCS) and 1% penicillin/streptomycin (P/S) at 3×10^4 cells/mL to obtain a cell suspension, and then the cell suspension was dispensed into each well of a 96-well plate in an amount of 100 μL. In order to perform the assay in triplicate, wells were prepared for a control group, and 3 wells were prepared for each test compound-treated group at each concentration. After the dispensation, the 96-well plate was incubated in a CO2 incubator (at 37° C. and 5% CO2) for 24±4 hours.
The present compound was dissolved in dimethylsulfoxide (DMSO) to obtain a 50 mmol/L solution, and the compound solution was stored at −80° C. The compound solution was diluted with DMSO in 2-fold dilution series (usually, in the range of 0.31 mmol/L to 20 mmol/L) to prepare test compound solutions whose concentration varied by two fold for WST assay.
Each solution of only DMSO (control) and the diluted test compound (sample) was dispensed into each well containing the cell suspension in an amount of 0.5 μL (200-fold dilution). The solution in each well was mixed with a vortex mixer, and then the 96-well plate was incubated in a CO2 incubator (at 37° C. and 5% CO2) for 48±4 hours. Then, Premix WST-1 Reagent (TAKARA BIO INC.) was added in an amount of 10 μL to each well. The solution in each well was mixed with a vortex mixer, and then the 96-well plate was incubated at 37° C. and 5% CO2. After 60 minutes or 120 minutes, the absorbance values (450 nm) were measured with a microplate reader (Bio-Rad; Benchmark or Thermo Scientific; Varioskan Flash).
The absorbance values of the control wells and the sample wells at each concentration were input into an Excel file to determine the percentages of absorbance values of the sample wells at each concentration with to the average absorbance value of the control wells. From the determined values, a fitted curve was determined by the method of least squares to calculate IC50.

Where [2] appears, read: Homo sapiens, A549, A549/OPNluc cells, 48±4 hours, read-out: EC50 (concentration for 50% inhibition of luciferase expression).
[3] abbreviates: Homo sapiens, A549, EC50 corrected for decrease in viable cells (RLU % divided by WST %), read-out: corrected EC50.
Where [4] appears, read: Homo sapiens, A549, A549/OPNluc cells.

As to `O=C(CCC(=O)Nc1cccc(Oc2ccc(Cl)cc2)c1)Nc1ccc(O)cc1` [Compound 23, N-(4-Hydroxyphenyl)-4-(3-(4-chlorophenoxy)phenylamino)-4-oxobutanamide], the EC50 amounted to 40.6 µM in assay [1] (A549/OPNluc cells, 48±4 hours, read-out: EC50 (concentration for 50% inhibition of luciferase expression)); 50.9 µM in assay [1] (EC50 corrected for decrease in viable cells (RLU % divided by WST %), read-out: corrected EC50); 71.5 µM in assay [1] (setting [2]); 82.8 µM in assay [1] (setting [3]). Moreover, the IC50 with A549/OPNluc cells (A549/OPNluc cells) is 87.3 µM; in the assay with A549/OPNluc cells (setting [4]), over 100 µM.

With `O=C(CCNC(=O)c1ccc(O)cc1)Nc1cccc(Oc2ccc(Cl)cc2)c1` [Compound 24, N-(3-(3-(4-Chlorophenoxy)phenylamino)-3-oxopropyl)-4-hydroxybenzamide], the figures for the EC50 in assay [1] (setting [2]) and in assay [1] (setting [3]) were 7.5 µM and 11.4 µM, respectively. In addition, the IC50 with A549/OPNluc cells (setting [4]) turned out to be 29.4 µM.

Regarding `COc1ccc(Oc2cccc(NC(=O)CCCNC(=O)c3ccc(O)cc3)c2)cc1` [Compound 27, N-(4-(3-(4-Methoxyphenoxy)phenylamino)-4-oxobuthyl)-4-hydroxybenzamide], the EC50 was found to be 19.8 µM in assay [1] (setting [2]) and 26.6 µM in assay [1] (setting [3]). Moreover, in the assay on A549/OPNluc cells (setting [4]), the IC50 was found to be 71.9 µM.

For the molecule `COc1ccc(Oc2ccccc2NC(=O)CNC(=O)c2ccc(O)cc2)cc1` [Compound 28, N-(2-(2-(4-Methoxyphenoxy)phenylamino)-2-oxoethyl)-4-hydroxybenzamide], the EC50 in assay [1] (setting [2]) was 41.5 µM; in assay [1] (setting [3]), 53.7 µM. Moreover, in the assay with A549/OPNluc cells (setting [4]), the IC50 was over 100 µM.

With `COc1ccc(Oc2ccccc2NC(=O)CCNC(=O)c2ccc(O)cc2)cc1` [Compound 29, N-(3-(2-(4-methoxyphenoxy)phenylamino)-3-oxopropyl)-4-hydroxybenzamide], the EC50 in assay [1] (setting [2]) was 51.4 µM; in assay [1] (setting [3]), 62.1 µM. Also, the IC50 in the assay on A549/OPNluc cells (setting [4]) was over 100 µM.

Turning to `COc1ccc(Oc2ccc(NC(=O)CCNC(=O)c3ccc(O)cc3)cc2)cc1` [Compound 30, N-(3-(4-(4-methoxyphenoxy)phenylamino)-3-oxopropyl)-4-hydroxybenzamide], the EC50 in assay [1] (setting [2]) was found to be 7 µM; in assay [1] (setting [3]), 12.6 µM. The IC50 in the assay with A549/OPNluc cells (setting [4]) stood at 52.3 µM.

In the case of `O=C(Nc1cccc(Oc2ccc(Cl)cc2)c1)C1CN(C(=O)c2ccc(O)cc2)C1` [Compound 31, N-(3-(4-chlorophenoxy)phenyl)-1-(4-hydroxyphenylcarbonyl)azetidine-3-carboxamide], the EC50 in assay [1] (setting [2]) is 9.3 µM; in assay [1] (setting [3]) it was 11 µM. Further, the IC50 with A549/OPNluc cells (setting [4]) is 26.9 µM.

Take `O=C(Nc1cccc(Oc2ccc(Cl)cc2)c1)C1CCN(C(=O)c2ccc(O)cc2)C1` (stereo not drawn) [Compound 32, N-(3-(4-chlorophenoxy)phenyl)-1-(4-hydroxyphenylcarbonyl)pyrrolidine-3-carboxamide]: the EC50 in assay [1] (setting [2]) was 8 µM; in assay [1] (setting [3]), 9.3 µM. In addition, the IC50 in the assay with A549/OPNluc cells (setting [4]) is 24.7 µM.

For the molecule `O=C(Nc1cccc(Oc2ccc(Cl)cc2)c1)C1CCCN(C(=O)c2ccc(O)cc2)C1` (stereo not drawn) [Compound 33, N-(3-(4-Chlorophenoxy)phenyl)-1-(4-hydroxyphenylcarbonyl)piperidine-3-carboxamide], the EC50 in assay [1] (setting [2]) is 8.5 µM; in assay [1] (setting [3]), 11.1 µM. In addition, in the assay with A549/OPNluc cells (setting [4]), the IC50 came out at 25.9 µM.

Consider `O=C(Nc1cccc(Oc2ccc(Cl)cc2)c1)C1CCCN1C(=O)c1ccc(O)cc1` (stereo not drawn) [Compound 34, N-(3-(4-Chlorophenoxy)phenyl)-1-(4-hydroxyphenylcarbonyl)pyrrolidine-2-carboxamide], for which the EC50 in assay [1] (setting [2]) is 24.9 µM; in assay [1] (setting [3]) it was 32.9 µM. In addition, the IC50 in the assay with A549/OPNluc cells (setting [4]) is 55.1 µM.

As for `O=C(CCNC(=O)c1cccs1)Nc1cccc(Oc2ccc(Cl)cc2)c1` [Compound 35, N-(3-(3-(4-Chlorophenoxy)phenylamino)-3-oxopropyl)thiophene-2-carboxamide], the results for the EC50 in assay [1] (setting [2]) and in assay [1] (setting [3]) were 23.8 µM and 41.4 µM, respectively. Besides, in the assay on A549/OPNluc cells (setting [4]), the IC50 came to 74.6 µM.

Regarding `O=C(CCNC(=O)c1ccsc1)Nc1cccc(Oc2ccc(Cl)cc2)c1` [Compound 36, N-(3-(3-(4-Chlorophenoxy)phenylamino)-3-oxopropyl)thiophene-3-carboxamide], the EC50 in assay [1] (setting [2]) came out at 22 µM; in assay [1] (setting [3]), 31.2 µM. Further, in the assay on A549/OPNluc cells (setting [4]), the IC50 was determined as 43.3 µM.

`O=C(CCNC(=O)c1ccncc1)Nc1cccc(Oc2ccc(Cl)cc2)c1` [Compound 37, N-(3-(3-(4-Chlorophenoxy)phenylamino)-3-oxopropyl)pyridine-4-carboxamide]: the figures for the EC50 in assay [1] (setting [2]) and in assay [1] (setting [3]) were 15.6 µM and 20.9 µM, respectively. Besides, in the assay on A549/OPNluc cells (setting [4]), the IC50 stood at 60.1 µM.
